According to patent publication US5162571A, “Phenol derivatives, their production and use” (Takeda Chemical Industries, Ltd., priority 1987, dated 1992):

Columns and labels:
[1] = test system: lipid peroxides production in rat brain homogenates; experiment: Inhibitory action on lipid peroxides production in rat brain homogenates; type: biochemical; details: 10^-5 M
Procedure: Inhibitory action on lipid peroxides production in rat brain homogenates
Method: The male SD rat brain tissue was used as 5% homogenate in phosphate-buffered solution. After incubation of the homogenate for 1 hour at 37° C., the amount of lipid peroxides produced was determined by the thiobarbituric acid method according to the description of Ohkawa et al. (Analytical Biochemistry, 95: 551, 1979)
Test compounds were used as a solution of dimethylsulfoxide. The inhibitory action on lipid peroxide production was expressed as a % inhibition as compared with the amount of production in the vehicle group.

[2] = test system: U-46619 (TXA2 mimic)-induced broncho-constriction; experiment: Inhibitory effect on U-46619 (TXA2 mimic)-induced broncho-constriction in guinea pig; type: in vivo; details: Cavia porcellus, ** p < 0.01; for inhibition in vivo at 5 mg/kg: po, 5 mg/kg p.o., 1 hour before U-46619
Procedure: Inhibitory effect on U-46619 (TXA2 mimic)-induced broncho-constrictionin guinea pig
Method: Eight male Hartley guinea pigs were used per one group. The guinea pig anesthetized with urethane (1.5 g/kg, i.p.) was fixed in a dorsal position, subjected to tracheotomy and connected to a respirator through a cannula. A side branch of the tracheal cannula was connected to a respirator (Harvard apparatus rodent respirator Type 680) at the rate of 70 strokes/min. and a constant volume of 3 to 5 ml.
Inflation pressure was kept constant at 10 cm H2 O.
After treatment with gallamine triethiodide (1 mg/kg, i.v.), U-46619 (10 μg/Kg) dissolved in a physiological saline solution was given through a carotid cannula and the airway resistance was measured by the overflow technique of Konzett-Rossler method (Konzett, H. and Rossler, R., Naunyn-Schmiedegerg's Arch, Exp. Path. Pharmak., 195, 71-74 (1940). A test compound was suspended in 5% gum arabic solution and was administered orally 1 hour before the treatment with U-46619.
Alternatively, a test compound was dissolved in aqueous 50% dimethylsulfoxide solution and administered interveneously in the dosage of 0.1 ml/100 g body weight 9 minutes before the treatment of U-46619.

[3] = target: T1, specific [^3 H] U-46619 binding to guinea pig platelet membrane (Cavia porcellus, UniProt A0A286Y4I8); experiment: Inhibition of specific [^3 H] U-46619 binding to guinea pig platelet membrane; details: [^3 H] U-46619, 25° C., 30 min; read-out: IC50 (Concentration for 50% inhibition)
T1 construct: Platelet membranes were prepared according to the following procedure; from tissue; host or cells: guinea pig platelet membranes
T1 sequence (A0A286Y4I8 1-347): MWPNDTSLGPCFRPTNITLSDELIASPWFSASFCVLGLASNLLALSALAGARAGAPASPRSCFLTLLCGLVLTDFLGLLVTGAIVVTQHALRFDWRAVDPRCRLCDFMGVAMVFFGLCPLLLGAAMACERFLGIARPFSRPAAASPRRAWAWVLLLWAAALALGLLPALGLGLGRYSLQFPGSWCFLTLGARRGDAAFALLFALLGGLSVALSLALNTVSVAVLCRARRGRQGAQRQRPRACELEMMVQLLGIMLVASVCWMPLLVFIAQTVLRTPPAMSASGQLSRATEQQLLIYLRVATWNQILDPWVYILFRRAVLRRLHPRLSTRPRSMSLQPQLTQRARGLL
Procedure: Inhibition of specific [^3 H] U-46619 binding to guinea pig platelet membrane
Method: Blood from normal guinea pig was collected into 0.315% citrate solution containing aspirin (final concentration 1 mM) and was centrifuged at 3000 r.p.m. for […]. The PRP (platelet rich plasma) was centrifuged at 4800 r.p.m for 10 min. at 4° C. Platelet membranes were prepared according to the following procedure: In order to remove the residual plasma protein, the platelet pellet was washed once with 30 ml of buffer containing 25 mM Tris-HCl/5 mM MgCl2 (pH 7.4) and recentrifuged to pellet the platelets. The platelets were then resuspended in 20 ml of the same buffer, and the cells were disrupted by sonication. The sonication was performed on ice using a Kontes Sonicator (Vineland, N.J.). The platelets were sonicated for a total of 90 sec. with a 15 sec. burst followed by a 15 sec. intermission. The sonicated mixture was centrifuged at 100,000×g for 1 hour and the membrane fraction was suspended in the same buffer. The protein concentration was adjusted to 1 mg/ml.
The binding assay was performed at 25° C. for 30 min. One ml of the resuspended membrane fraction was incubated with […] of [^3 H] U-46619. The incubation mixture was filtered through a glass fiber membrane (GF/C, whatman) to separate the membrane bound from free [^3 H] U-46619. The membranes were quickly washed twice with 5 ml of cold buffer, mixed with 4 ml of ACS scintillation fluid and counted for [^3 H] U-46619.

[4] = target: T2, Thromboxane A2 (TXA2) receptor (Oryctolagus cuniculus, UniProt Q6WQI8); experiment: Thromboxane A2 (TXA2) receptor antagonism: inhibitory effect on contraction of rabbit aorta by TXA2-mimics; type: cell-based; details: U-44069 (10^-7 M)-induced contraction; for inhibition at 1 µM: 10^-6 M; for inhibition at 0.1 µM: 10^-7 M
T2 construct: contraction by TXA2 mimics U-44069 or U-46619
T2 sequence (Q6WQI8 1-233): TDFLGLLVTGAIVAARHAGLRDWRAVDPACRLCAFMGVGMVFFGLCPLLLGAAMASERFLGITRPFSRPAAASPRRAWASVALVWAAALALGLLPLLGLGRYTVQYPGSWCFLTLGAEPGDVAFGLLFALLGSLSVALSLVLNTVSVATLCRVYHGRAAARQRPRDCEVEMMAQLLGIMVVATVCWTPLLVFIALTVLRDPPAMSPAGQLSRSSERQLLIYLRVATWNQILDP
Procedure: Thromboxane A2 (TXA2) receptor antagonism
Inhibitory effect on contraction of rabbit aorta by thromboxan A2 (TXA2)-mimics
(§1) Method: A spiral strip of the rabbit aorta (2-3 mm wide, about 3 cm long) was suspended in Krebs-Henseleit solution under the load of 2 g. The Krebs-Henseleit solution was saturated with a mixed gas of 95%O2 -5%CO2 and warmed at 37° C. Inhibition of the contraction of the vascular strip caused by a TXA2 mimic substance U-44069^1) (10^-7 M) or U-46619^2) (3×10 ^-8 M), by pretreatment with Compound No. 13 30 minutes before was studied.
1) U-44069: (5Z, 9α, 11α, 13E, 15S)-15-hydroxy-9,11-(epoxymethano)-prosta-5,13-dienoic acid (manufacturedby The Upjohn Company in U.S.A.)
2) U-46619: (5Z, 9α, 11α, […], 15S)-15-hydroxy-11,9-(epoxymethano)-prosta-5,13-dienoic acid (manufacturedby Cayman Chemical Company)
In Table 5, "*" represents addition of U-46619.

[5] = test system: chorioallantoic membrane; experiment: Angiogenesis inhibitory activity, shell-less chorioallantoic membrane (CAM) assay; type: in vivo, chick; details: 6 disks tested
Procedure: Angiogenesis inhibitory activity
Method: Shell-less chorioallantoic membrane assay.
The shell-less chorioallantoic membrane (CAM) assay was carried out by the method of Taylor and Folkman [S. Taylor and J. Folkman; Nature, 297, 307 (1982)] with a slight modification. Thus, 3-day chick embryos were removed from their shells and cultured in plastic cups on hammocks of plastic wrap. Samples along with ECGS (endothelial cell growth supplements, Collaborative Research Inc.) were placed on plastic disks (polypropylene, 6 mm in diameter). After the solution had dried, the disks were placed on the CAM of 10-day embryos. Three days later, inhibition of the neovascular formation by fumagillin was observed under a stereoscope (×20, SMZ-10, Nikon), and compared to the control disk containing ECGS as a stimulant of angiogenesis without samples.

[6] = test system: vasoconstriction by PGD2 (rabbit aorta); experiment: Inhibitory effect of vasoconstriction by PGD2; type: cell-based; details: Oryctolagus cuniculus; 10^-7 M; PGD2 (3×10^-6 M); n = 2; read-out: Inhibitory Rate (%)
Procedure: Inhibitory effect of vasoconstriction by PGD2
as §1, with “95% O2 -5% CO2” for “95%O2 -5%CO2”, “addition of PGD2 (3×10^-6” for “a TXA2 mimic substance U-44069^1) (10^-7”, “M)” for “M) or U-46619^2) (3×10 ^-8 M),”

[7] = Extension of bleeding time; type: in vivo, rat; details: one hour before
Procedure: Extension of bleeding time
Method: Test compounds were administered orally to rats one hour before the experiments. The rats were anesthetized and the tail was cut at 1.5 mm from the tip. Immediately, the tail was hung down into a physiological saline warmed at 37° C. The time required from initiation to stop of bleeding (bleeding time) was measured.

Cc1cc(C)c(O)c(C(CCCCCC(=O)O)c2ccc(F)cc2)c1C (stereo not shown) [Compound 1, 7-(4-fluorophenyl)-7-(2-hydroxy-3,5,6-trimethylphenyl)heptanoic acid]
Inhibition (%) [1]: 92.0%
inhibition in vivo at 5 mg/kg [2]: 55%
IC50 [3]: 240 nM
inhibition at 10 µM ([4]; 10^-5 M): 100%
inhibition at 1 µM [4]: 56%
Number of disks showing angiogenesis inhibition ([5]; 4 μg): 3
Number of disks showing angiogenesis inhibition ([5]; 20 μg): 6

Cc1c(O)c(C(CCCCCC(=O)O)c2ccc(F)cc2)c(C)c2c1CCC2 (stereo not shown) [Compound 21]
inhibition at 0.1 µM [6]: 54%
Bleeding time ([7]; 10 mg/kg oral, control 173 ± 23, * p < 0.05): 235 ± 38 s
Bleeding time ([7]; 30 mg/kg oral, control 164 ± 27, ** p < 0.01): 529 ± 154 s
inhibition in vivo at 0.31 mg/kg ([2]; iv, 0.31 mg/kg i.v., 9 minutes before U-46619): 51%
inhibition in vivo at 5 mg/kg [2]: 76%
IC50 [3]: 49 nM
inhibition at 1 µM [4]: 99%
inhibition at 0.1 µM [4]: 5%

Cc1c(C)c(C=O)c(C)c(C(CCCCCC(=O)O)c2ccc(F)cc2)c1O (stereo not shown) [Compound 27, 7-(4-fluorophenyl)-7-(3-formyl-6-hydroxy-2,4,5-trimethylphenyl)heptanoic acid]
inhibition at 0.1 µM [6]: 100%
inhibition in vivo at 5 mg/kg [2]: 84%
IC50 [3]: 2.3 nM
inhibition at 0.1 µM [4]: 98%
